Test results reported in patent publication US11147272B2, “Pyridone compounds and agricultural and horticultural fungicides comprising the same as active ingredients” (MITSUI CHEMICALS AGRO, INC., priority 2017, dated 2021).

Experiments:
[1] = test system: Puccinia recondita; assay: Test Example E: Brown rust on wheat; type: in vivo; settings: for Test E control value class: class of control value
[2] = test system: Botrytis cinerea; assay: Test Example B: Gray mold on tomato; settings: for Test B control value class: class of control value
[3] = test system: Blumeria graminis f. sp. hordei; assay: Test Example D: Powdery mildew on barley; settings: for Test D control value class: class of control value
[4] = test system: Magnaporthe grisea; assay: whole plant or invertebrate; type: in vivo; settings: for Test A control value class: class of control value
[5] = test system: Alternaia brassicicola; assay: Test Example C: Alternaria sooty spot on cabbage; type: in vivo; settings: for Test C control value class: class of control value
Source text: Seeds of a test plant (cabbage variety: Shikidori) were planted and cultivated until the cotyledons extended.
<Control Value> Control value=100{1−(n/3)}

[6] = test system: Phytophthora infestans; assay: whole plant or invertebrate; type: in vivo; settings: for Test F control value class: class of control value
[7] = test system: Plasmopara viticola; assay: Test Example G: Downy mildew on vine; settings: for Test G control value: 7 to 10 days after inoculation; for Test G control value class: Downy mildew on vine (Neomuscat), 2.5 ml/pot, assessed 7 to 10 days after inoculation
[8] = test system: Colletotrichum orbiculare; assay: Test Example H: Anthracnose on cucumber; settings: for Test H control value: 6 to 10 days after inoculation; for Test H control value class: Anthracnose on cucumber (Sagami Hanjiro), 2.5 ml/pot, assessed 6 to 10 days after inoculation
[9] = Brown rust on wheat, control value class
[10] = Gray mold on tomato, control value class
[11] = Powdery mildew on barley, control value class
[12] = Blast on rice, control value class
[13] = Alternaria sooty spot on cabbage, control value class
[14] = Late blight on tomato, control value class
[15] = Downy mildew on vine, 250 ppm spray
[16] = Anthracnose on cucumber, 250 ppm spray
[17] = Alternaria sooty spot on cabbage
[18] = 250 ppm drug solution sprayed on test plant
[19] = 250 ppm drug solution sprayed (2.5 ml/pot), grape Neomuscat
[20] = 250 ppm drug solution sprayed (2.5 ml/pot), cucumber Sagami Hanjiro

| SMILES | Test E control value [1, 9] | Test B control value [2, 10] | Test D control value [3, 11] | Test A control value [4, 12] | Test C control value [5, 13] | Test F control value [6, 14] | Test G control value [7, 15] | Test H control value [8, 16] | Test E control value class ([1]; Brown rust on wheat) | Test B control value class ([2]; Gray mold on tomato) | Test D control value class ([3]; Powdery mildew on barley) | Test A control value class ([4]; Blast on rice) | Test C control value class [5, 17] | Test F control value class ([6]; Late blight on tomato) | Test G control value class ([7]; 250 ppm spray) | Test H control value class ([8]; 250 ppm spray) | also measured |
| --- | --- | --- | --- | --- | --- | --- | --- | --- | --- | --- | --- | --- | --- | --- | --- | --- | --- |
| C=C(c1cc(Cl)c(=O)n(CC)c1-c1c(F)cc(F)cc1F)C(C)C [compound 243] | H (more than 50% control value) | H (more than 50% control value) | H (more than 50% control value) | H (more than 50% control value) | H (more than 50% control value) | L (50% or less control value) | L (50% or less control value) | H (more than 50% control value) | – | – | – | – | – | – | – | – | – |
| CCCCCCCc1cc(Br)c(=O)n(CC)c1-c1ccc(F)cc1Cl [compound 269] | L (50% or less control value) | L (50% or less control value) | H (more than 50% control value) | L (50% or less control value) | L (50% or less control value) | L (50% or less control value) | L (50% or less control value) | L (50% or less control value) | – | – | – | – | – | – | – | – | – |
| CCn1c(-c2c(F)cc(F)cc2F)c(C(C)(O)CC)cc(Cl)c1=O (stereo not shown) [compound 52] | – | – | – | – | – | – | – | – | H (more than 50% control value) | H (more than 50% control value) | H (more than 50% control value) | H (more than 50% control value) | H (more than 50% control value) | L (50% or less control value) | H (more than 50% control value) | H (more than 50% control value) | – |
| CC(C)C(=O)c1cc(Cl)c(=O)n(C)c1-c1c(F)cc(F)cc1F [compound 448] | – | – | – | – | – | – | – | – | – | – | – | – | – | – | – | – | Test E control value [1, 18]: L (50% or less control value); Test B control value [2, 18]: H (more than 50% control value); Test D control value [3, 18]: L (50% or less control value); Test A control value [4, 18]: L (50% or less control value); Test C control value [5, 18]: L (50% or less control value); Test F control value [6, 18]: L (50% or less control value); Test G control value [7, 19]: L (50% or less control value); Test H control value [8, 20]: L (50% or less control value) |
| CCOc1cc(F)c(-c2c(C(C)(C)C)cc(Cl)c(=O)n2CC)c(F)c1 [compound 75] | – | – | – | – | – | – | – | – | H (more than 50% control value) | H (more than 50% control value) | L (50% or less control value) | L (50% or less control value) | H (more than 50% control value) | L (50% or less control value) | L (50% or less control value) | H (more than 50% control value) | – |
| CCn1c(-c2c(F)cc(OC)cc2F)c(C(C)(F)CC)cc(Cl)c1=O (stereo not shown) [compound 61] | – | – | – | – | – | – | – | – | H (more than 50% control value) | H (more than 50% control value) | H (more than 50% control value) | H (more than 50% control value) | H (more than 50% control value) | L (50% or less control value) | H (more than 50% control value) | H (more than 50% control value) | – |
| CCn1c(-c2ccc(Br)cc2F)c(CC(C)C)cc(Cl)c1=O [compound 143] | – | – | – | – | – | – | – | – | H (more than 50% control value) | H (more than 50% control value) | H (more than 50% control value) | H (more than 50% control value) | H (more than 50% control value) | L (50% or less control value) | H (more than 50% control value) | H (more than 50% control value) | – |
| CCn1c(-c2c(F)cc(F)cc2F)c(COc2ccc(OC)cc2)cc(Cl)c1=O [compound 310] | H (more than 50% control value) | H (more than 50% control value) | L (50% or less control value) | L (50% or less control value) | H (more than 50% control value) | L (50% or less control value) | H (more than 50% control value) | L (50% or less control value) | – | – | – | – | – | – | – | – | – |
| CCCc1ccc(=O)n(CC)c1-c1ccc(OC)cc1Cl [compound 318] | H (more than 50% control value) | H (more than 50% control value) | H (more than 50% control value) | L (50% or less control value) | H (more than 50% control value) | H (more than 50% control value) | L (50% or less control value) | H (more than 50% control value) | – | – | – | – | – | – | – | – | – |
| CCn1c(-c2ccc(Cl)cc2Cl)c(CC(C)C)cc(Cl)c1=O [compound 139] | – | – | – | – | – | – | – | – | H (more than 50% control value) | H (more than 50% control value) | H (more than 50% control value) | H (more than 50% control value) | H (more than 50% control value) | L (50% or less control value) | H (more than 50% control value) | H (more than 50% control value) | – |
| CCn1c(-c2c(F)cc(F)cc2F)c(C(C)(O)C(C)C)cc(Br)c1=O (stereo not shown) [compound 381] | – | – | – | – | – | – | – | – | – | – | – | – | – | – | – | – | Test E control value [1, 18]: H (more than 50% control value); Test B control value [2, 18]: H (more than 50% control value); Test D control value [3, 18]: H (more than 50% control value); Test A control value [4, 18]: H (more than 50% control value); Test C control value [5, 18]: H (more than 50% control value); Test F control value [6, 18]: H (more than 50% control value); Test G control value [7, 19]: H (more than 50% control value); Test H control value [8, 20]: H (more than 50% control value) |
